Consider eight compounds from US6828332B1, “Piperidine derivatives as reuptake inhibitors” (Eli Lilly and Company, priority 1999, dated 2004).

Structures are written as SMILES. Where a name gives a salt, the structure may show the parent alone.

`O=C(C1CCCCC1)C(CCN1CC=C(c2ccc3ccsc3c2)CC1)c1ccccn1` (centres unmarked) (as salt: oxalate): the melting point – broadly, the temperature, or range, at which the solid turns liquid – was in the range of 164 to 169 °C. Take `O=C(C1CCCCC1)C(CCN1CC=C(c2csc3ccccc23)CC1)c1ccccn1` (centres unmarked) (as salt: oxalate): the melting point lay within 208 to 210 °C. Consider `O=C(C1CCCCC1)C(CCN1CC=C(c2ccc3sccc3c2)CC1)c1ccccn1` (centres unmarked) (as salt: oxalate), for which the melting point lay in the range of 194 to 196 °C.

`OC(C1CCCCC1)C(CCN1CC=C(c2cc3ccccc3s2)CC1)c1ccccn1` (single isomer, unassigned) (as salt: oxalate): the melting point was 210 to 212 °C.

`OC(C1CCCCC1)C(CCN1CC=C(c2ccc3ccsc3c2)CC1)c1ccccn1` (centres unmarked) (as salt: oxalate) gave a melting point of 94 to 98 °C. Regarding `O=C(C1CCCCC1)C(CCN1CC=C(c2cc3ccccc3s2)CC1)c1ccccn1` (centres unmarked) (as salt: oxalate), the melting point lay in the range of 228 to 230 °C. As to `OC(C1CCCCC1)C(CCN1CC=C(c2csc3ccccc23)CC1)c1ccccn1` (centres unmarked) (as salt: oxalate), the melting point was in the range of 100 to 107 °C.

The compound `OC(C1CCCCC1)C(CCN1CC=C(c2ccc3sccc3c2)CC1)c1ccccn1` (single isomer, unassigned) (as salt: oxalate) gave a melting point of 190 to 192 °C.
